From BindingDB's records for doi:10.1016/S0960-894X(96)00483-0 (1996)

Biological target: Kynureninase (Pseudomonas fluorescens) (UniProt P83788)
Assay: Compound was evaluated for its binding affinity against kynureninase isolated from Pseudomonas fluorescence

Chain of Kynureninase (Pseudomonas fluorescens) (P83788 whole entry, looked up): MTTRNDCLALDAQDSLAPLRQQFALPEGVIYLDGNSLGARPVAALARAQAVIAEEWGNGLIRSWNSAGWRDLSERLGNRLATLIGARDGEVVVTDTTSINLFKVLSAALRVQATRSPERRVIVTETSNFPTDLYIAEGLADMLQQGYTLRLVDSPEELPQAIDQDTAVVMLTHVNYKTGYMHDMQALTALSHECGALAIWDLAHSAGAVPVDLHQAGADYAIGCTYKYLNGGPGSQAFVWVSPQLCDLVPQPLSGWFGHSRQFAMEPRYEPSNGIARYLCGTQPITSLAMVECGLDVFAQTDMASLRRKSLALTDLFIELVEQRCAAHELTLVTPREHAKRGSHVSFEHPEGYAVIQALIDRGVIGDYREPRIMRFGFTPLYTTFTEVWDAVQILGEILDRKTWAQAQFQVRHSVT

SMILES: COP(=O)(C[C@H](NC(=O)OCc1ccccc1)C(=O)O)c1ccccc1 (stereo partly drawn) [(R)-2-Benzyloxycarbonylamino-3-(methoxy-phenyl-phosphinoyl)-propionic acid]
- Ki: 880 µM

SMILES: COC(=O)[C@H](CP(=O)(OC)c1ccccc1)NC(=O)OCc1ccccc1 (stereo partly drawn) [(R)-2-Benzyloxycarbonylamino-3-(methoxy-phenyl-phosphinoyl)-propionic acid methyl ester]
- Ki: 8.8 µM

SMILES: Nc1ccccc1C(=O)C[C@H](N)C(=O)O [2-ammonio-4-(2-ammoniophenyl)-4-oxo-(2S)-butanoate]
- Ki: 4.28 µM

SMILES: N[C@@H](CC(=O)c1ccccc1)C(=O)O [2-ammonio-4-oxo-4-phenyl-(2S)-butanoate]
- Ki: 23.4 µM
